# Measured values taken from US12398139B2, “Modulators of AMPA receptor signaling” (Centre for Addiction and Mental Health, priority 2019, dated 2025).
# Structures can show the parent of a compound that is named as a salt.
# Assays:
# [1] = system: HEK-293 cells expressing GAPDH and GluR2; assay: AMPA mediated cell-death assay (CellTox Green Cytotoxicity Assay); type: cell-based; conditions: Homo sapiens, HEK293, AMPA 500 μM, CTZ 100 μM, CellTox Green fluorescence, read-out: Potency, inhibition of AMPA-mediated neurotoxicity (IC50, concentration at which 50% of cell death was prevented)
# Method: The ability of compounds to inhibit AMPA-mediated neurotoxicity was determined using the CellTox™ Green Cytotoxicity Assay (G8743) kit from Promega. In this assay, GAPDH and GluR2 are expressed in HEK-293 cells. AMPA (500 μM) was added to induce an AMPAR-mediated cell death signalling cascade. This is initiated by the GAPDH-GluR2 complex formation followed by the nuclear translocation of the complex, where it activates the p53-mediated cell death pathway. The presence of a compound which can block dimerization of GAPDH and GluR2 will prevent the nuclear translocation and the cell death and, thus this assay is an effective measure of the ability of a compound to prevent AMPA-mediated neurotoxicity and thus show therapeutic benefit in the treatment of MS.
# The assay was performed as per the manufacture's instruction. Briefly, 293 cells stably expressing GluR1 and GluR2VENUS were transfected with pcDNA-RluC-GAPDH. AMPA (500 μM) were added to induce the cell death. CTZ (100 μM) was added to prevent AMPAR desensitization. Candidate molecules were added before the AMPA treatment to test its protective effect. Untreated cells and AMPA treated group were used as negative and positive control respectively. CellTox™ Green Reagent (˜5×) was then added to achieve a final concentration of 1× and cells were incubated at room temperature for 15 minutes (shielded from ambient light). The fluorescence intensity at 485-500 nmEx/520-530 nmEm was then measured and calculated as the percentage value of the positive control. The concentration at which 50% of cell death was prevented (IC50) was determined for each compound.
# The potency was measured using the cell death assay described above.
# [2] = molecular target: T1, GluR2/GAPDH complex (Homo sapiens, UniProt P42262); assay: Surface plasmon resonance target engagement assay (competitive GluR2-Venus affinity with GAPDH); conditions: SPR, captured GluR2-VENUS, 100 nM GAPDH peptide, compound top concentration 10 μM; read-out: Potency, GluR2 Binding Affinity (competitive inhibition of GluR2-GAPDH interaction)
# T1 construct: host or cells: HEK293 cells stably transfected with GluR2-VENUS (lysate)
# T1 sequence (P42262 25-883, species assumed, one chain of several): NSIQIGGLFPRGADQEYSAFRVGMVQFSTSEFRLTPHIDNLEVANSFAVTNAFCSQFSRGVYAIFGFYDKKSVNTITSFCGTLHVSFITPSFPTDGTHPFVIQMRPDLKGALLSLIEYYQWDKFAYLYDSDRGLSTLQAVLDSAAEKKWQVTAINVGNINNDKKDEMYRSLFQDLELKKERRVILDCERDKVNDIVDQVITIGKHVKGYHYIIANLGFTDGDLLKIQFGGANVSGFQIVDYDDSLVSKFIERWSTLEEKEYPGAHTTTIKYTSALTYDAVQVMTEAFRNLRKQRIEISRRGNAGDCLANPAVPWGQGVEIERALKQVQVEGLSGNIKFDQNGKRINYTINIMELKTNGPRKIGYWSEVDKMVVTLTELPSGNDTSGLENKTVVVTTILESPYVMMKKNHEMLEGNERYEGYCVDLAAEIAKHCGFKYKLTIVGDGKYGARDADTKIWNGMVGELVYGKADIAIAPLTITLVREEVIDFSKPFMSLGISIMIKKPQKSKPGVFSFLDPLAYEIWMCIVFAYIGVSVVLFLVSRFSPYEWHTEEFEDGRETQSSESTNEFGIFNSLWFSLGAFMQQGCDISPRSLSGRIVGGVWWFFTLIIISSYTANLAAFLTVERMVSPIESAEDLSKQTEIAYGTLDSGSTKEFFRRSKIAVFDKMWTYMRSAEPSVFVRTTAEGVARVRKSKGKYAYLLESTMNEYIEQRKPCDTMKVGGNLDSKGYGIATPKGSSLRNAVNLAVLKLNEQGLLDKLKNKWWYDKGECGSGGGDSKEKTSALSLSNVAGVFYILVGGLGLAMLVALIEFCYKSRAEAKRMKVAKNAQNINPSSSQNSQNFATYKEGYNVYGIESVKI
# Method: This is one of the most commonly used techniques to study modulation of protein-protein interactions by small molecule ligands, providing real-time measurement of binding affinities and association/dissociation kinetics of complexes (compound/protein) in a label-free environment. The ability of our lead compound to disrupt the interaction of GluR2/GAPDH complex was measured by the binding affinity. Compounds were analyzed for competitive GluR2-Venus protein affinity (with GAPDH recombinant protein) using a Reichert 2SPR system. The surface was first charged with nickel (500 μM NiCl2 in HBS-P buffer for 300 s at a flow rate of 5 μL/min). The dextran surface was then activated with a 1:1 mixture of N-ethyl-N-dimethylaminopropylcarbodiimide (EDC) and N-hydroxysuccinimide (NHS) on line for final concentrations of EDC and NHS of 37.5 mg/mL and 5.8 mg/mL, respectively, for 420 s at a flow rate of 25 μL/min. Anti-VENUS antibody was first immobilized by capture onto a 500 KDa CM Dextran sensor chip (Reichert), proceeded by activation of the carboxymethylated dextran surface for mild amine coupling, followed by a final blocking injection of 1 M ethanolamine, pH 8.5. GluR2-VENUS (lysate of HEK293 cells stably transfected with GluR2-VENUS) was then captured for 900 s at a flow rate of 25 μL/min followed by a final blocking injection of 2% BSA, for 300 s at a flow rate of 5 μL/min.
# The surface plasmon resonance affinity assay was carried out in a PBS buffer consisting of 0.05% Tween 20. For affinity measurements, compound solutions were prepared using ten three-fold serial dilutions in running buffer from a 10 μM top concentration (prepared from DMSO stocks) along with a zero (running buffer) control, mixed with 100 nM GAPDH peptide (Sigma Aldrich). A flow rate of 30 μl/min was used with a 420 s contact time (using high performance injection parameters) followed by a 120 s dissociation phase. Results were analyzed by subtracting the signals of the reference surface from the signals for the protein-bound surfaces and performing a solvent correction. Competitive binding responses were normalized throughout the screen to the percentage of inhibition of the respective small molecule compound. Three independent experiments were performed.
# The binding affinity was measured using the surface plasmon resonance assay described above.
structure (smiles),measurement,setting,value
"CN(C)C(=O)c1cccc(N2Cc3cn(CC4CC4)nc3C2)c1 [Compound 247, 3-(2-(Cyclopropylmethyl)-2,6-dihydropyrrolo[3,4-c]pyrazol-5(4H)-yl)-N,N-dimethylbenzamide]",IC50,[1],36 nM
same,IC50,[2],148 nM
"CN1CCN(C(=O)c2cccc(N3Cc4cn(Cc5ccc(F)cc5)nc4C3)c2)CC1 [Compound 218, (3-(2-(4-Fluorobenzyl)-2,6-dihydropyrrolo[3,4-c]pyrazol-5(4H)-yl)phenyl)(4-methylpiperazin-1-yl)methanone]",IC50,[1],33 nM
same,IC50,[2],99 nM
"COc1ccc(Cn2cc3c(n2)CN(c2cccc(C(=O)N(C)C)c2)C3)cc1 [Compound 233, 3-(2-(4-Methoxybenzyl)-2,6-dihydropyrrolo[3,4-c]pyrazol-5(4H)-yl)-N,N-dimethylbenzamide]",IC50,[1],62 nM
same,IC50,[2],33 nM
"CN(C)C(=O)c1cccc(N2Cc3cn(CC4CCCCC4)nc3C2)c1 [Compound 239, 3-(2-(Cyclohexylmethyl)-2,6-dihydropyrrolo[3,4-c]pyrazol-5(4H)-yl)-N,N-dimethylbenzamide]",IC50,[1],26 nM
same,IC50,[2],41 nM
"CN(C)C(=O)c1cncc(N2Cc3cn(CC4CCCCC4)nc3C2)n1 [Compound 238, 6-(2-(Cyclohexylmethyl)-2,6-dihydropyrrolo[3,4-c]pyrazol-5(4H)-yl)-N,N-dimethylpyrazine-2-carboxamide]",IC50,[1],167 nM
same,IC50,[2],102 nM
"N#Cc1cncc(N2Cc3cn(Cc4ccc(F)cc4)nc3C2)n1 [Compound 245, 6-(2-(4-Fluorobenzyl)-2,6-dihydropyrrolo[3,4-c]pyrazol-5(4H)-yl)pyrazine-2-carbonitrile]",IC50,[1],771 nM
same,IC50,[2],206 nM
O=C(NC1CCCC1)c1ccnc(N2Cc3cn(Cc4ccc(F)cc4)nc3C2)n1 [Compound 213],IC50,[1],24 nM
same,IC50,[2],20 nM
"O=C(NC1CCCCC1)c1cncc(N2Cc3cn(Cc4ccc(F)cc4)nc3C2)n1 [Compound 214, N-Cyclohexyl-6-(2-(4-fluorobenzyl)-2,6-dihydropyrrolo[3,4-c]pyrazol-5(4H)-yl)pyrazine-2-carboxamide]",IC50,[1],46 nM
same,IC50,[2],24 nM
"N#Cc1cccc(N2Cc3cn(Cc4ccc(F)cc4)nc3C2)c1 [Compound 240, 3-(2-(4-Fluorobenzyl)-2,6-dihydropyrrolo[3,4-c]pyrazol-5(4H)-yl)benzonitrile]",IC50,[1],35 nM
same,IC50,[2],26 nM
"O=C(c1ccnc(N2Cc3cn(Cc4ccc(F)cc4)nc3C2)n1)N1CCCCC1 [Compound 244, (2-(2-(4-Fluorobenzyl)-2,6-dihydropyrrolo[3,4-c]pyrazol-5(4H)-yl)pyrimidin-4-yl)(piperidin-1-yl)methanone]",IC50,[1],2.4 nM
same,IC50,[2],2.4 nM
"Cc1ccc(Cn2cc3c(n2)CN(c2cccc(C(=O)N(C)C)c2)C3)cc1 [Compound 235, N,N-Dimethyl-3-(2-(4-methylbenzyl)-2,6-dihydropyrrolo[3,4-c]pyrazol-5(4H)-yl)benzamide]",IC50,[1],656 nM
same,IC50,[2],1070 nM
"O=C(c1ccnc(N2Cc3cn(Cc4ccc(F)cc4)nc3C2)n1)N1CCOCC1 [Compound 211, (2-(2-(4-Fluorobenzyl)-2,6-dihydropyrrolo[3,4-c]pyrazol-5(4H)-yl)pyrimidin-4-yl)(morpholino)methanone]",IC50,[1],44 nM
same,IC50,[2],34 nM
"CN(C)C(=O)c1cccc(N2Cc3cn(Cc4cccc(F)c4)nc3C2)c1 [Compound 237, 3-(2-(3-Fluorobenzyl)-2,6-dihydropyrrolo[3,4-c]pyrazol-5(4H)-yl)-N,N-dimethylbenzamide]",IC50,[1],47 nM
same,IC50,[2],30 nM
"O=C(c1cccc(N2Cc3cn(Cc4ccc(F)cc4)nc3C2)c1)N1CCNCC1 [Compound 220, (3-(2-(4-Fluorobenzyl)-2,6-dihydropyrrolo[3,4-c]pyrazol-5(4H)-yl)phenyl)(piperazin-1-yl)methanone hydrochloride]",IC50,[1],15 nM
same,IC50,[2],85 nM
"O=C(c1cccc(N2Cc3cn(Cc4ccc(F)cc4)nc3C2)c1)N1CCCC1 [Compound 243, (3-(2-(4-Fluorobenzyl)-2,6-dihydropyrrolo[3,4-c]pyrazol-5(4H)-yl)phenyl)(pyrrolidin-1-yl)methanone]",IC50,[1],1150 nM
same,IC50,[2],130 nM
"CN(C)C(=O)c1ccc(N2Cc3cn(Cc4ccc(F)cc4)nc3C2)cc1 [Compound 246, 4-(2-(4-Fluorobenzyl)-2,6-dihydropyrrolo[3,4-c]pyrazol-5(4H)-yl)-N,N-dimethylbenzamide]",IC50,[1],8.6 nM
same,IC50,[2],440 nM
"Cc1ccc(Cn2cc3c(n2)CN(c2cncc(C(=O)N(C)C)n2)C3)cc1 [Compound 234, N,N-Dimethyl-6-(2-(4-methylbenzyl)-2,6-dihydropyrrolo[3,4-c]pyrazol-5(4H)-yl)pyrazine-2-carboxamide]",IC50,[1],114 nM
same,IC50,[2],139 nM
"CCN(CC)C(=O)c1cncc(N2Cc3cn(Cc4ccc(F)cc4)nc3C2)n1 [Compound 231, N,N-Diethyl-6-(2-(4-fluorobenzyl)-2,6-dihydropyrrolo[3,4-c]pyrazol-5(4H)-yl)pyrazine-2-carboxamide]",IC50,[1],250 nM
same,IC50,[2],86 nM
"CN(C)C(=O)c1cncc(N2Cc3cnn(Cc4ccc(F)cc4)c3C2)n1 [REF, reference compound]",IC50,[1],200 nM
same,IC50,[2],> 1000 nM
"CN(C)C(=O)c1cncc(N2Cc3cn(Cc4cccc(F)c4)nc3C2)n1 [Compound 236, 6-(2-(3-Fluorobenzyl)-2,6-dihydropyrrolo[3,4-c]pyrazol-5(4H)-yl)-N,N-dimethylpyrazine-2-carboxamide]",IC50,[1],5000 nM
same,IC50,[2],275 nM
"COc1ccc(Cn2cc3c(n2)CN(c2cncc(C(=O)N(C)C)n2)C3)cc1 [Compound 232, 6-(2-(4-Methoxybenzyl)-2,6-dihydropyrrolo[3,4-c]pyrazol-5(4H)-yl)-N,N-dimethylpyrazine-2-carboxamide]",IC50,[1],54 nM
same,IC50,[2],88 nM
"O=C(NCC(F)(F)F)c1cccc(N2Cc3cn(Cc4ccc(F)cc4)nc3C2)c1 [Compound 219, 3-(2-(4-Fluorobenzyl)-2,6-dihydropyrrolo[3,4-c]pyrazol-5(4H)-yl)-N-(2,2,2-trifluoroethyl)benzamide]",IC50,[1],28 nM
same,IC50,[2],14 nM
"CN1CCN(C(=O)c2ccnc(N3Cc4cn(Cc5ccc(F)cc5)nc4C3)n2)CC1 [Compound 212, (2-(2-(4-Fluorobenzyl)-2,6-dihydropyrrolo[3,4-c]pyrazol-5(4H)-yl)pyrimidin-4-yl)(4-methylpiperazin-1-yl)methanone]",IC50,[1],20 nM
same,IC50,[2],31 nM
"N#Cc1ccnc(N2Cc3cn(Cc4ccc(F)cc4)nc3C2)n1 [Compound 241, 2-(2-(4-Fluorobenzyl)-2,6-dihydropyrrolo[3,4-c]pyrazol-5(4H)-yl)pyrimidine-4-carbonitrile]",IC50,[1],72 nM
same,IC50,[2],20 nM
"CN(C)C(=O)c1cccc(N2Cc3cn(Cc4ccc(F)cc4)nc3C2)c1 [Compound 217, 3-(2-(4-Fluorobenzyl)-2,6-dihydropyrrolo[3,4-c]pyrazol-5(4H)-yl)-N,N-dimethylbenzamide]",IC50,[1],6.7 nM
same,IC50,[2],67 nM
"O=C(NC1CCCC1)c1cccc(N2Cc3cn(Cc4ccc(F)cc4)nc3C2)c1 [Compound 215, N-Cyclopentyl-3-(2-(4-fluorobenzyl)-2,6-dihydropyrrolo[3,4-c]pyrazol-5(4H)-yl)benzamide]",IC50,[1],3.5 nM
same,IC50,[2],48 nM
